The record followed here is US20250179077A1, “QUINAZOLINE COMPOUNDS AND USES THEREOF AS INHIBITORS OF MUTANT KRAS PROTEINS” (AMGEN INC., priority 2022, published 2025).

Molecules are shown by their SMILES.

Test [1] deals with Phosphorylation of ERK1/2 in AsPC-1 cells. As to the kind of experiment: Phospho-ERK1/2 MSD Assay. Type of test: cell-based. The settings on record: Homo sapiens, ASPC1, 2 h, read-out: 2 h p-ERK (AsPC-1 cells), IC50, AsPC-1 cells, 2 h compound treatment. In short, it runs like this: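 Phospho-ERK1/2 was quantified by MSD whole-cell lysate immunoassay in RIPA lysates made with protease/phosphatase inhibitors. A 4-parameter logistic model gave IC50.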

The target in test [2] is His-tagged KRAS G12D protein (Homo sapiens, UniProt P01116, G12D). As to the kind of experiment: KRAS G12D TR-FRET Assay. Type of test: binding. The gist of the method:
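His-KRAS G12D (20 nM) was preincubated with titrated compound for 30 min at RT in HEPES pH 7.4 buffer with MgCl2, 10 μM GDP. Biotin-KRPep-2d (20 nM) was then added for 1 h, followed by Eu-anti-His/streptavidin-d2 for 1 h. The 665/615 nm TR-FRET ratio was fitted 4-parameter to give IC50.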

Test [3] addresses GDP-bound KRAS protein (aa 1-169), containing both G12D and C118A amino acid substitutions (Homo sapiens, UniProt P01116, C118A/G12D). As to the kind of experiment: KRAS G12D Coupled Nucleotide Exchange Assay. Type of test: biochemical. How it is done: KRAS G12D Coupled Nucleotide Exchange Assay
Following compound pre-incubation, purified SOS protein (aa 564-1049) and GTP (Roche 10106399001) were added to the assay wells and incubated for an additional 30 min. […] The assay plates were then read on a PerkinElmer EnVision Multilabel Reader, using AlphaScreen® technology, and data were analyzed using a 4-parameter logistic model to calculate IC50 values.

Chain of His-tagged KRAS G12D protein (P01116 1-188 isoform P01116-2 G12D): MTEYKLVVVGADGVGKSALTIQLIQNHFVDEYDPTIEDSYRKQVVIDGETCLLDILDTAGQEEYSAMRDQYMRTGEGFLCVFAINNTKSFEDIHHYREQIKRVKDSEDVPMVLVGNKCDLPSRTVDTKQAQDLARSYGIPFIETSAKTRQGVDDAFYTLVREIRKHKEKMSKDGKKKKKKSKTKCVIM
Chain of GDP-bound KRAS protein (aa 1-169), containing both G12D and C118A amino acid substitutions (P01116 1-169 isoform P01116-2 G12D/C118A): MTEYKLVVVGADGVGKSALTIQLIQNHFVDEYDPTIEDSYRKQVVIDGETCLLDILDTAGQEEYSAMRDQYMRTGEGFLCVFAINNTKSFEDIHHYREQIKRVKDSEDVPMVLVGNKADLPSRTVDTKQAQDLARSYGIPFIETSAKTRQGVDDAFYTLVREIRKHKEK

In general, IC50 refers to the concentration needed to halve the response being measured. As for `C/C=C\c1c(Cl)cc2[nH]ncc2c1-c1ccc2c(N3CCC[C@](O)(CF)C3)nc(OC[C@@]34CCCN3C[C@H](F)C4)nc2c1F` (single isomer, unassigned) [Example 109], the IC50 in test [1] came to 0.1 µM; in test [2], 0.004 µM; in test [3], 0.004 µM.

Consider `C/C=C\c1c(Cl)cc2[nH]ncc2c1-c1c(F)cc2c(N3CCC[C@](O)(C(F)F)C3)nc(OC[C@@]34CCCN3C[C@H](F)C4)nc2c1F` (single isomer, unassigned) [Example 112], for which the IC50 amounted to 0.125 µM in test [1], 0.005 µM in test [2] and 0.005 µM in test [3].

As for `C/C=C\c1c(Cl)cc2[nH]ncc2c1-c1c(F)cc2c(N3CCC[C@]4(CCO4)C3)nc(OC[C@@]34CCCN3C[C@H](F)C4)nc2c1F` (single isomer, unassigned) [Example 113], the values for the IC50 in test [1], in test [2] and in test [3] were 0.041 µM, 0.003 µM and 0.003 µM, respectively.

On to `C/C=C\c1c(C)cc2[nH]ncc2c1-c1c(F)cc2c(N3CCC[C@]4(CCO4)C3)nc(OC[C@@]34CCCN3C[C@H](F)C4)nc2c1F` (single isomer, unassigned) [Example 114], for which the IC50 in test [1] came to 0.087 µM; in test [2] it was 0.006 µM; in test [3], 0.005 µM.

In the case of `C/C=C\c1c(Cl)cc2[nH]ncc2c1-c1c(F)cc2c(N3CCC[C@@](C)(O)C3)nc(OC[C@@]34CCCN3C[C@H](F)C4)nc2c1F` (single isomer, unassigned) [Example 120], the IC50 in test [1] stood at 0.035 µM; in test [2] it was 0.004 µM; in test [3], 0.003 µM.

For the compound `CCc1c(F)ccc2cc(O)cc(-c3ccc4c(N5CCC[C@@](C)(O)C5)nc(OC[C@@]56CCCN5C[C@H](F)C6)nc4c3F)c12` [Example 1, (R)-1-(7-(8-Ethyl-7-fluoro-3-hydroxynaphthalen-1-yl)-8-fluoro-2-(((2R,7aS)-2-fluorotetrahydro-1H-pyrrolizin-7a(5H)-yl)methoxy)quinazolin-4-yl)-3-methylpiperidin-3-ol], the IC50 worked out at 0.048 µM in test [1], 0.002 µM in test [2] and 0.003 µM in test [3].

With `CCc1c(F)ccc2cc(O)cc(-c3ccc4c(N5C[C@H](N)CC(F)(F)C5)nc(OC[C@@]56CCCN5C[C@H](F)C6)nc4c3F)c12` [Example 4, 4-(4-((R)-5-Amino-3,3-difluoropiperidin-1-yl)-8-fluoro-2-(((2R,7aS)-2-fluorotetrahydro-1H-pyrrolizin-7a(5H)-yl)methoxy)quinazolin-7-yl)-5-etbyl-6-fluoronaphthalen-2-ol], the IC50 in test [1] is 0.426 µM; in test [2], 0.0003 µM; in test [3], 0.0005 µM.

Consider `CCc1c(F)ccc2cc(O)cc(-c3ccc4c(N5C[C@H](NC(=O)OC)CC(F)(F)C5)nc(OC[C@@]56CCCN5C[C@H](F)C6)nc4c3F)c12` [Example 5, Methyl ((R)-1-(7-(8-ethyl-7-fluoro-3-hydroxynaphthalen-1-yl)-8-fluoro-2-(((2R,7aS)-2-fluorotetrahydro-1H-pyrrolizin-7a(5H)-yl)methoxy)quinazolin-4-yl)-5,5-difluoropiperidin-3-yl)carbamate], for which the 50% inhibitory concentration (IC50) stood at 0.303 µM in test [1], 0.003 µM in test [2] and 0.003 µM in test [3].

On to `C[C@@]1(O)CCCN(c2nc(OC[C@@]34CCCN3C[C@H](F)C4)nc3c(F)c(-c4cc(O)cc(Cl)c4C4CC4)c(F)cc23)C1` [Example 6, (3R)-1-(7-(3-Chloro-2-cyclopropyl-5-hydroxyphenyl)-6,8-difluoro-2-(((2R,7aS)-2-fluorotetrahydro-1H-pyrrolizin-7a(5H)-yl)methoxy)quinazolin-4-yl)-3-methylpiperidin-3-ol], for which the IC50 came to 0.123 µM in test [1], 0.005 µM in test [2] and 0.004 µM in test [3].

On to `Oc1cc(Cl)c(C2CC2)c(-c2ccc3c(N4CCCOCC4)nc(OC[C@@]45CCCN4C[C@H](F)C5)nc3c2F)c1` [Example 7, 3-Chloro-4-cyclopropyl-5-(8-fluoro-2-(((2R,7a.S)-2-fluorotetrahydro-1H-pyrrolizin-7a(5H)-yl)methoxy)-4-(1,4-oxazepan-4-yl)quinazolin-7-yl)phenol], for which the IC50 in test [1] is 0.812 µM; in test [2], 0.012 µM; in test [3], 0.011 µM.

Take `CCc1c(F)ccc2cc(O)cc(-c3c(F)cc4c(N5CCCOCC5)nc(OC[C@@]56CCCN5C[C@H](F)C6)nc4c3F)c12` [Example 9, 4-(6,8-Difluoro-2-(((2R,7aS)-2-fluorotetrahydro-1H-pyrrolizin-7a(5H)-yl)methoxy)-4-(1,4-oxazepan-4-yl)quinazolin-7-yl)-5-ethyl-6-fluoronaphthalen-2-ol]: the IC50 in test [1] came out at 0.259 µM; in test [2] it was 0.004 µM; in test [3] it was 0.003 µM.

With `Oc1cc(-c2c(F)cc3c(N4CCCOCC4)nc(OC[C@@]45CCCN4C[C@H](F)C5)nc3c2F)c2ccccc2c1` [Example 10, 4-(6,8-Difluoro-2-(((2R,7aS)-2-fluorotetrahydro-1H-pyrrolizin-7a(5H)-yl)methoxy)-4-(1,4-oxazepan-4-yl)quinazolin-7-yl)naphthalen-2-ol], the IC50 was found to be 1.04 µM in test [1], 0.014 µM in test [2] and 0.015 µM in test [3].

Take `CCc1c(F)ccc2cc(O)cc(-c3c(F)cc4c(N5CCC(O)C5)nc(OC[C@@]56CCCN5C[C@H](F)C6)nc4c3F)c12` (stereo partly drawn) [Example 19, 1-(7-(8-Ethyl-7-fluoro-3-hydroxynaphthalen-1-yl)-6,8-difluoro-2-(((2R,7a.S)-2-fluorotetrahydro-1H-pyrrolizin-7a(5H)-yl)methoxy)quinazolin-4-yl)pyrrolidin-3-ol]: the IC50 came to 7.74 µM in test [1], 0.111 µM in test [2] and 0.037 µM in test [3].

For `CCc1c(F)ccc2cc(O)cc(-c3c(Cl)cc4c(N5CCC[C@@](C)(O)C5)nc(OC[C@@]56CCCN5C[C@H](F)C6)nc4c3F)c12` [Example 25, (3R)-1-(6-Chloro-7-(8-ethyl-7-fluoro-3-hydroxynaphthalen-1-yl)-8-fluoro-2-(((2R,7aS)-2-fluorotetrahydro-1H-pyrrolizin-7a(5H)-yl)methoxy)quinazolin-4-yl)-3-methylpiperidin-3-ol], the IC50 in test [1] came out at 0.146 µM; in test [2], 0.004 µM; in test [3] it was 0.005 µM.

Consider `CCc1c(F)ccc2cc(O)cc(-c3c(O)cc4c(N5CCCOCC5)nc(OC[C@@]56CCCN5C[C@H](F)C6)nc4c3F)c12` [Example 26, 7-(8-Ethyl-7-fluoro-3-hydroxynaphthalen-1-yl)-8-fluoro-2-(((2R,7aS)-2-fluorotetrahydro-1H-pyrrolizin-7a(5H)-yl)methoxy)-4-(1,4-oxazepan-4-yl)quinazolin-6-ol], for which the IC50 was 0.27 µM in test [1], 0.004 µM in test [2] and 0.004 µM in test [3].

`CCc1c(F)ccc2cc(O)cc(-c3c(F)cc4c(N5CCOCC(F)(F)C5)nc(OC[C@@]56CCCN5C[C@H](F)C6)nc4c3F)c12` [Example 37, 4-(4-(6,6-Difluoro-1,4-oxazepan-4-yl)-6,8-difluoro-2-(((2R,7aS)-2-fluorotetrahydro-1H-pyrrolizin-7a(5H)-yl)methoxy)quinazolin-7-yl)-5-ethyl-6-fluoronaphthalen-2-ol]: the figures for the IC50 in test [1], in test [2] and in test [3] were 0.391 µM, 0.011 µM and 0.010 µM, respectively.

With `CCc1c(F)ccc2cc(O)cc(-c3ccc4c(N5CCCC6(CCO6)C5)nc(OC[C@@]56CCCN5C[C@H](F)C6)nc4c3F)c12` (stereo partly drawn) [Example 40, 5-Ethyl-6-fluoro-4-(8-fluoro-2-(((2R,7aS)-2-fluorotetrahydro-1H-pyrrolizin-7a(5H)-yl)methoxy)-4-(1-oxa-6-azaspiro[3.5]nonan-6-yl)quinazolin-7-yl)naphthalen-2-ol], the IC50 amounted to 0.053 µM in test [1], 0.006 µM in test [2] and 0.011 µM in test [3].

Take `Oc1cc(-c2ccc3c(N4CCCOCC4)nc(OC[C@]45CCCN4C[C@H](F)C5)nc3c2F)c2ccccc2c1` [Example 41, 4-(8-Fluoro-2-(((2R,7aR)-2-fluorotetrahydro-1H-pyrrolizin-7a(5H)-yl)methoxy)-4-(1,4-oxazepan-4-yl)quinazolin-7-yl)naphthalen-2-ol]: the values for the IC50 in test [1], in test [2] and in test [3] were 1.47 µM, 0.023 µM and 0.023 µM, respectively.

Consider `Oc1cc(-c2ccc3c(N4CCCOCC4)nc(OC[C@@]45CCCN4C[C@H](F)C5)nc3c2F)c2ccccc2c1` [Example 42, 4-(8-Fluoro-2-(((2R,7aS)-2-fluorotetrahydro-1H-pyrrolizin-7a(5H)-yl)methoxy)-4-(1,4-oxazepan-4-yl)quinazolin-7-yl)naphthalen-2-ol], for which the IC50 in test [1] is 1.16 µM; in test [2] it was 0.025 µM; in test [3], 0.014 µM.

As for `Oc1cc(-c2ccc3c(N4CCCOCC4)nc(OCC45CCCN4CCC5)nc3c2F)c2ccccc2c1` [Example 43, 4-(8-Fluoro-4-(1,4-oxazepan-4-yl)-2-((tetrahydro-1H-pyrrolizin-7a(5H)-yl)methoxy)quinazolin-7-yl)naphthalen-2-ol], the figures for the IC50 in test [1], in test [2] and in test [3] were 1.67 µM, 0.022 µM and 0.013 µM, respectively.
